Source: US20240368177A1, “5-AMINO-6,8-DIHYDRO-1H-FURO[3,4-d]PYRROLO[3,2-b]PYRIDINE-2-CARBOXAMIDE DERIVATIVES AS MTA-COOPERATIVE INHIBITORS OF PRMT5” (BeiGene Switzerland GmbH, priority 2023, published 2024)

How the values were obtained:
[1] = tested on: HCT116-MTAP-KO; experiment: Cell killing in HCT116 isogenic pair (Cell Titer-Glo viability), MTAP knock-out cells; type: cell-based, human; settings: Homo sapiens, HCT-116, 144 h, 6 days incubation, 0-10 μM, * = more than 50% viability inhibition at tested concentration without a full curve
Procedure, shortened: (§1)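 HCT116 MTAP-knockout or mock-knockout (MTAP wildtype) cells in RPMI 1640 with 10% FBS were seeded overnight, then exposed to test compound at 0–10 μM final for 6 days at 37° C. Viability was measured by CellTiter-Glo luminescence and IC50 was fitted.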

[2] = tested on: HCT116-mock-RNA-KO; experiment: Cell killing in HCT116 isogenic pair (Cell Titer-Glo viability), mock knock-out cells with MTAP wildtype genotype; type: cell-based, human; settings: Homo sapiens, HCT-116, 144 h, 6 days incubation, 0-10 μM
Procedure, shortened: as §1

Nc1nc2cc(C(=O)N(Cc3ncc(C4CC4)cc3F)C3CCCC3)[nH]c2c2c1COC2 [Example 65, 5-amino-N-cyclopentyl-N-((5-cyclopropyl-3-fluoropyridin-2-yl)methyl)-6,8-dihydro-1H-furo[3,4-d]pyrrolo[3,2-b]pyridine-2-carboxamide]
IC50 [1]: 17 nM | IC50 [2]: 2460 nM

CC(C)N(Cc1ncc(C2CC2)cc1F)C(=O)c1cc2nc(N)c3c(c2[nH]1)COC3 [Example 66, 5-amino-N-((5-cyclopropyl-3-fluoropyridin-2-yl)methyl)-N-isopropyl-6,8-dihydro-1H-furo[3,4-d]pyrrolo[3,2-b]pyridine-2-carboxamide]
IC50 [1]: 20 nM | IC50 [2]: 2520 nM

CC[C@@H](C)N(Cc1ncc(C2CC2)cc1F)C(=O)c1cc2nc(N)c3c(c2[nH]1)COC3 [Example 67, (R)-5-amino-N-(sec-butyl)-N-((5-cyclopropyl-3-fluoropyridin-2-yl)methyl)-6,8-dihydro-1H-furo[3,4-d]pyrrolo[3,2-b]pyridine-2-carboxamide]
IC50 [1]: 4.2 nM | IC50 [2]: 453 nM

C[C@H]1OCc2c1c(N)nc1cc(C(=O)N(C)[C@@H]3COCc4cc(C(F)(F)F)ccc43)[nH]c21 [Example 68, (R)-5-amino-N,6-dimethyl-N—((S)-7-(trifluoromethyl)isochroman-4-yl)-6,8-dihydro-1H-furo[3,4-d]pyrrolo[3,2-b]pyridine-2-carboxamide]
IC50 [1]: 9 nM | IC50 [2]: 1690 nM

Nc1nc2cc(C(=O)N(Cc3ncc(C4CC4)cc3F)C3CCC3)[nH]c2c2c1COC2 [Example 69, 5-amino-N-cyclobutyl-N-((5-cyclopropyl-3-fluoropyridin-2-yl)methyl)-6,8-dihydro-1H-furo[3,4-d]pyrrolo[3,2-b]pyridine-2-carboxamide]
IC50 [1]: 26 nM | IC50 [2]: 2700 nM

CC(C)[C@@H](C)N(Cc1ncc(C2CC2)cc1F)C(=O)c1cc2nc(N)c3c(c2[nH]1)COC3 [Example 70, (R)-5-amino-N-((5-cyclopropyl-3-fluoropyridin-2-yl)methyl)-N-(3-methylbutan-2-yl)-6,8-dihydro-1H-furo[3,4-d]pyrrolo[3,2-b]pyridine-2-carboxamide]
IC50 [1]: 12 nM | IC50 [2]: 1180 nM

C[C@H]1OCc2c1c(N)nc1cc(C(=O)N(C)[C@H]3COCc4cc(Br)ccc43)[nH]c21 [Example 71, (R)-5-amino-N—((R)-7-bromoisochroman-4-yl)-N,6-dimethyl-6,8-dihydro-1H-furo[3,4-d]pyrrolo[3,2-b]pyridine-2-carboxamide]
IC50 [1]: 728 nM | IC50 [2]: 6160 nM

C[C@H]1OCc2c1c(N)nc1cc(C(=O)N(C)[C@@H]3COCc4cc(Br)ccc43)[nH]c21 [Example 72, (R)-5-amino-N—((S)-7-bromoisochroman-4-yl)-N,6-dimethyl-6,8-dihydro-1H-furo[3,4-d]pyrrolo[3,2-b]pyridine-2-carboxamide]
IC50 [1]: 8.2 nM | IC50 [2]: 1010 nM

CCN(C(=O)c1cc2nc(N)c3c(c2[nH]1)COC3)[C@@H]1COCc2cc(Cl)ccc21 [Example 73, (S)-5-amino-N-(7-chloroisochroman-4-yl)-N-ethyl-6,8-dihydro-1H-furo[3,4-d]pyrrolo[3,2-b]pyridine-2-carboxamide]
IC50 [1]: 34 nM | IC50 [2]: 2490 nM

CCN(C(=O)c1cc2nc(N)c3c(c2[nH]1)COC3)[C@H]1COCc2cc(Cl)ccc21 [Example 74, (R)-5-amino-N-(7-chloroisochroman-4-yl)-N-ethyl-6,8-dihydro-1H-furo[3,4-d]pyrrolo[3,2-b]pyridine-2-carboxamide]
IC50 [1]: 1070 nM | IC50 [2]: > 10000 nM

CCN(C(=O)c1cc2nc(N)c3c(c2[nH]1)COC3)[C@@H]1COCc2cc(F)cc(F)c21 [Example 75, (S)-5-amino-N-(5,7-difluoroisochroman-4-yl)-N-ethyl-6,8-dihydro-1H-furo[3,4-d]pyrrolo[3,2-b]pyridine-2-carboxamide]
IC50 [1]: 41 nM | IC50 [2]: > 10000 nM

CCN(C(=O)c1cc2nc(N)c3c(c2[nH]1)COC3)[C@H]1COCc2cc(F)cc(F)c21 [Example 76, (R)-5-amino-N-(5,7-difluoroisochroman-4-yl)-N-ethyl-6,8-dihydro-1H-furo[3,4-d]pyrrolo[3,2-b]pyridine-2-carboxamide]
IC50 [1]: 2110 nM | IC50 [2]: > 10000 nM

CCN(C(=O)c1cc2nc(N)c3c(c2[nH]1)COC3)[C@@H]1COc2cc(C(F)(F)F)ccc21 [Example 77, (S)-5-amino-N-ethyl-N-(6-(trifluoromethyl)-2,3-dihydrobenzofuran-3-yl)-6,8-dihydro-1H-furo[3,4-d]pyrrolo[3,2-b]pyridine-2-carboxamide]
IC50 [1]: 51 nM | IC50 [2]: > 10000 nM

C[C@@H]1OC[C@H](N(C)C(=O)c2cc3nc(N)c4c(c3[nH]2)COC4)c2ccc(Br)cc21 [Example 78, 5-amino-N-((1S,4R)-7-bromo-1-methylisochroman-4-yl)-N-methyl-6,8-dihydro-1H-furo[3,4-d]pyrrolo[3,2-b]pyridine-2-carboxamide]
IC50 [1]: 624 nM | IC50 [2]: 2930 nM

C[C@H]1OC[C@H](N(C)C(=O)c2cc3nc(N)c4c(c3[nH]2)COC4)c2ccc(Br)cc21 [Example 79, 5-amino-N-((1R,4R)-7-bromo-1-methylisochroman-4-yl)-N-methyl-6,8-dihydro-1H-furo[3,4-d]pyrrolo[3,2-b]pyridine-2-carboxamide]
IC50 [1]: 525 nM | IC50 [2]: 3280 nM

C[C@@H]1OC[C@@H](N(C)C(=O)c2cc3nc(N)c4c(c3[nH]2)COC4)c2ccc(Br)cc21 [Example 80, 5-amino-N-((1S,4S)-7-bromo-1-methylisochroman-4-yl)-N-methyl-6,8-dihydro-1H-furo[3,4-d]pyrrolo[3,2-b]pyridine-2-carboxamide]
IC50 [1]: 351 nM | IC50 [2]: > 10000 nM

C[C@H]1OC[C@@H](N(C)C(=O)c2cc3nc(N)c4c(c3[nH]2)COC4)c2ccc(Br)cc21 [Example 81, 5-amino-N-((1R,4S)-7-bromo-1-methylisochroman-4-yl)-N-methyl-6,8-dihydro-1H-furo[3,4-d]pyrrolo[3,2-b]pyridine-2-carboxamide]
IC50 [1]: 9.7 nM | IC50 [2]: 1020 nM

CN(C(=O)c1cc2nc(N)c3c(c2[nH]1)COC3)[C@@H]1COCc2cc(C(F)(F)F)cc(F)c21 [Example 82, (S)-5-amino-N-(5-fluoro-7-(trifluoromethyl)isochroman-4-yl)-N-methyl-6,8-dihydro-1H-furo[3,4-d]pyrrolo[3,2-b]pyridine-2-carboxamide]
IC50 [1]: 13 nM | IC50 [2]: 1840 nM

C[C@H]1OC[C@@H](N(C)C(=O)c2cc3nc(N)c4c(c3[nH]2)CO[C@@H]4C)c2ccc(C(F)(F)F)cc21 [Example 83, (R)-5-amino-N,6-dimethyl-N-((1R,4S)-1-methyl-7-(trifluoromethyl)isochroman-4-yl)-6,8-dihydro-1H-furo[3,4-d]pyrrolo[3,2-b]pyridine-2-carboxamide]
IC50 [1]: 7.2 nM | IC50 [2]: 556 nM

CN(C(=O)c1cc2nc(N)c3c(c2[nH]1)COC3)[C@@H]1COCc2cc(I)ccc21 [Example 84, (S)-5-amino-N-(7-iodoisochroman-4-yl)-N-methyl-6,8-dihydro-1H-furo[3,4-d]pyrrolo[3,2-b]pyridine-2-carboxamide]
IC50 [1]: 10 nM | IC50 [2]: 2200 nM

CN(C(=O)c1cc2nc(N)c3c(c2[nH]1)COC3)[C@@H]1COCc2nc(C(F)(F)F)ccc21 [Example 85, (S)-5-amino-N-methyl-N-(2-(trifluoromethyl)-5,8-dihydro-6H-pyrano[3,4-b]pyridin-5-yl)-6,8-dihydro-1H-furo[3,4-d]pyrrolo[3,2-b]pyridine-2-carboxamide]
IC50 [1]: 113 nM | IC50 [2]: > 10000 nM

CN(C(=O)c1cc2nc(N)c3c(c2[nH]1)COC3)[C@H]1COCc2nc(C(F)(F)F)ccc21 [Example 86, (R)-5-amino-N-methyl-N-(2-(trifluoromethyl)-5,8-dihydro-6H-pyrano[3,4-b]pyridin-5-yl)-6,8-dihydro-1H-furo[3,4-d]pyrrolo[3,2-b]pyridine-2-carboxamide]
IC50 [1]: 1900 nM | IC50 [2]: > 10000 nM

CN(C(=O)c1cc2nc(N)c3c(c2[nH]1)COC3)[C@@H]1COCc2nc(C3CC3)ccc21 [Example 87, (S)-5-amino-N-(2-cyclopropyl-5,8-dihydro-6H-pyrano[3,4-b]pyridin-5-yl)-N-methyl-6,8-dihydro-1H-furo[3,4-d]pyrrolo[3,2-b]pyridine-2-carboxamide]
IC50 [1]: 67 nM | IC50 [2]: > 10000 nM

CN(C(=O)c1cc2nc(N)c3c(c2[nH]1)COC3)[C@H]1COCc2nc(C3CC3)ccc21 [Example 88, (R)-5-amino-N-(2-cyclopropyl-5,8-dihydro-6H-pyrano[3,4-b]pyridin-5-yl)-N-methyl-6,8-dihydro-1H-furo[3,4-d]pyrrolo[3,2-b]pyridine-2-carboxamide]
IC50 [1]: 1410 nM | IC50 [2]: > 10000 nM

CCN(C(=O)c1cc2nc(N)c3c(c2[nH]1)COC3)[C@@H]1CO[C@H](C)c2cc(C(F)(F)F)ccc21 [Example 89, 5-amino-N-ethyl-N-((1R,4S)-1-methyl-7-(trifluoromethyl)isochroman-4-yl)-6,8-dihydro-1H-furo[3,4-d]pyrrolo[3,2-b]pyridine-2-carboxamide]
IC50 [1]: 4.1 nM | IC50 [2]: 446 nM

CC(=O)N1CC[C@@H](N(C)C(=O)c2cc3nc(N)c4c(c3[nH]2)COC4)c2ccc(C(F)(F)F)cc21 [Example 90, (R)—N-(1-acetyl-7-(trifluoromethyl)-1,2,3,4-tetrahydroquinolin-4-yl)-5-amino-N-methyl-6,8-dihydro-1H-furo[3,4-d]pyrrolo[3,2-b]pyridine-2-carboxamide]
IC50 [1]: 29 nM | IC50 [2]: 5450 nM

CN(C(=O)c1cc2nc(N)c3c(c2[nH]1)COC3)[C@@H]1COC2(CC2)c2cc(C(F)(F)F)ccc21 [Example 91, (S)-5-amino-N-methyl-N-(7′-(trifluoromethyl)spiro[cyclopropane-1,1′-isochroman]-4′-yl)-6,8-dihydro-1H-furo[3,4-d]pyrrolo[3,2-b]pyridine-2-carboxamide]
IC50 [1]: 32 nM | IC50 [2]: 3880 nM
